In patent US5753648A, “Tricyclic benzazepine vasopressin antagonists” (American Cyanamid Company, priority 1996, dated 1998) one finds inhibition and IC50 data, which are given here for 19 molecules.

The target of test [1] is T1, oxytocin receptors (Rattus norvegicus, UniProt P70536).
T1 sequence (P70536 1-388): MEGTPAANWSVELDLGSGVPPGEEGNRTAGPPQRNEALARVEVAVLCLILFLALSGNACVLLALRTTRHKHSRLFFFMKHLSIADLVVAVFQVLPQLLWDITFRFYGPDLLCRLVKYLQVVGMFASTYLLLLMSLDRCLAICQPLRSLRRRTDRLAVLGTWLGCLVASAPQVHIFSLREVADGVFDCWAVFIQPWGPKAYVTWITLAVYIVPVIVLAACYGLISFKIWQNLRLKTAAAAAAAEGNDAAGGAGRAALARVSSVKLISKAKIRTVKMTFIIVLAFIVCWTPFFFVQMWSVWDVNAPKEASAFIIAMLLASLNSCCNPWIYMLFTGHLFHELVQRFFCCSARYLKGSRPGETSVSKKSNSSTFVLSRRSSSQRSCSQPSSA
The test is described as follows: Oxytocin Receptor Binding. The settings on record: for IC50: rat uterine membranes, [3H]oxytocin.

The target of test [2] is Rat Hepatic V1 Receptors (Rattus norvegicus, UniProt P30560). As to the kind of experiment: Binding Assay to Rat Hepatic V1 Receptors. As for the experimental part:
Binding Assay to Rat Hepatic V1 Receptors
Rat liver plasma membranes expressing the vasopressin V1 receptor subtypes are isolated by sucrose density gradient according to the method described by Lesko et al, (1973). These membranes are quickly suspended in 50.0 mM Tris.HCl buffer, pH 7.4, containing 0.2% bovine serum albumin (BSA) and 0.1 mM phenylmethylsulfonylfluoride (PMSF) and kept frozen at -70° C. until used in subsequent binding experiments. For binding experiments, the following is added to the wells of a ninety-six well format microtiter plate: 100 μl of 100.0 mM Tris.HCl buffer containing 10.0 mM MgCl2, 0.2% heat inactivated BSA and a mixture of protease inhibitors: leupeptin, 1.0 mg %; aprotinin, 1.0 mg %; 1,10-phenanthroline,2.0 mg %; trypsin inhibitor, 10.0 mg % and 0.1 mM PMSF, 20.0 μl of [phenylalanyl-3,4,5,-^3 H] vaso-pressin (S.A. 45.1 Ci/mmole) at 0.8 nM, and the reaction initiated by the addition of 80 μl of tissue membranes containing 20 μg of tissue protein. The plates are kept undisturbed on the bench top at room temperature for 120 min. to reach equilibrium. Non-specific samples are assayed in the presence of 0.1 μm of the unlabeled antagonist phenylalanylvasopressin, added in 20.0 μl volume. For test compounds, these are solubilized in 50% dimethylsulfoxide (DMSO) and added in 20.0 μl volume to a final incubation volume of 200 μl. Upon completion of binding, the content of each well is filtered off, using a Brandel® cell Harvester (Gaithersburg, Md.). The radioactivity trapped on the filter disk by the ligand-receptor complex is assessed by liquid scintillation counting in a Packard LS Counter, with an efficiency of 65% for tritium. The data are analyzed for IC50 values by the LUNDON-2 program for competition (LUNDON SOFTWARE, Ohio).

Test [3] concerns the target T2, Rat Kidney Medullary V2 Receptors (Rattus norvegicus, UniProt Q00788).
T2 construct: Medullary tissues from rat kidneys are dissected out; from tissue; host or cells: rat kidney medulla membranes
As to the kind of experiment: biochemical. It is filed as binding. As for the experimental part: Binding Assay to Rat Kidney Medullary V2 Receptors
Medullary tissues from rat kidneys are dissected out, cut into small pieces and soaked in a […] sodium chloride solution containing 1.0 mM EDTA with many changes of the liquid phase, until the solution is clear of blood. The tissue is homogenized in a 0.25M sucrose solution containing 1.0 mM EDTA and 0.1 mM PMSF using a Potter-Elvehjem homogenizer with a teflon pestle. The homogenate is filtered through several layers (4 layers) of cheese cloth. The filtrate is rehomogenized using a dounce homogenizer, with a tight fitting pestle. The final homogenate is centrifuged at 1500×g for 15 min. The nuclear pellet is discarded and the supernatant fluid recentrifuged at 40,000×g for 30 min. The resulting pellet formed contains a dark inner part with the exterior, slightly pink. The pink outer part is suspended in a small amount of 50.0 mM Tris.HCl buffer, pH 7.4. The protein content is determined by the Lowry's method (Lowry et al, J. Biol. Chem., 1953). The membrane suspension is stored at -70° C., in 50.0 mM Tris.HCl, containing 0.2% inactivated BSA and 0.1 mM PMSF in aliquots of 1.0 ml containing 10.0 mg protein per ml of suspension until use in subsequent binding experiments.
For binding experiments, the following is added in μl volume to wells of a 96 well format of a microtiter plate: 100.0 μl of 100.0 mM Tris.HCl buffer containing 0.2% heat inactivated BSA, 10.0 mM MgCl2 and a mixture of protease inhibitors: leupeptin, 1.0 mg %; aprotinin, 1.0 mg %; 1,10-phenanthroline, 2.0 mg %; trypsin inhibitor, 10.0 mg % and 0.1 mM PMSF, 20.0 μl of [^3 H] Arginine^8, vasopressin (S.A. 75.0 Ci/mmole) at 0.8 nM and the reaction initiated by the addition of 80.0 μl of tissue membranes (200.0 μg tissue protein). The plates are left undisturbed on the bench top for 120 min. to reach equilibrium. Non-specific binding is assessed in the presence of 1.0 μM of unlabeled ligand, added in 20 μl volume. For test compounds, these are solubilized in 50% dimethylsulfoxide (DMSO) and added in 20.0 μl volume to a final incubation volume of 200 μl. Upon completion of binding, the content of each well is filtered off, using a Brandel® cell Harvester (Gaithersburg, Md.). The radioactivity trapped on the filter disk by the ligand-receptor complex is assessed by liquid scintillation counting in a Packard LS Counter, with an efficiency of 65% for tritium. The data are analyzed for IC50 values by the LUNDON-2 program for competition (LUNDON SOFTWARE, Ohio).

Where a name gives a salt, the structure may show the parent alone.

Rat Hepatic V1 Receptors, sequence (P30560 whole entry): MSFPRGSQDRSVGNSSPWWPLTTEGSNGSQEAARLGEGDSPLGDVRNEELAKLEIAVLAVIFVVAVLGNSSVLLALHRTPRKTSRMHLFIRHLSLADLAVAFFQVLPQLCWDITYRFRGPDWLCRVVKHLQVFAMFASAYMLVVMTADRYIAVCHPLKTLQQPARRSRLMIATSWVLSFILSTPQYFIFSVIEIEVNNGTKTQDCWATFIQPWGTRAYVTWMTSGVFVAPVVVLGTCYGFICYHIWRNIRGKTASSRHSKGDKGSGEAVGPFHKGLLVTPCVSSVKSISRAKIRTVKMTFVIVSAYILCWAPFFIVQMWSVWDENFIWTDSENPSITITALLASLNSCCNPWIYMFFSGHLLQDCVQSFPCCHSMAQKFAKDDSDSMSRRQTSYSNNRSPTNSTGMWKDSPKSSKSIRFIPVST
T2 sequence (Q00788 whole entry): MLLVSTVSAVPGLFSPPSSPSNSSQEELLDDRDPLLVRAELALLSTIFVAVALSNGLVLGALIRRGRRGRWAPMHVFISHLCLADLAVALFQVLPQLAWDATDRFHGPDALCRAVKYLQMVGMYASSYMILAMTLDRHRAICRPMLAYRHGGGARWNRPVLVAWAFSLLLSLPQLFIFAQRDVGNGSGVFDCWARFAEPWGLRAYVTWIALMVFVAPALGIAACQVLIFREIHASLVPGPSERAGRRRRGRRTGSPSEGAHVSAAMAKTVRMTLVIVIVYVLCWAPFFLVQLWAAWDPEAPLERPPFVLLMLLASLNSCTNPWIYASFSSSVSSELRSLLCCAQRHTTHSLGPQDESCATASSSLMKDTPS

A word on the inhibition: it is the relative decrease from the control value, in per cent. What is called IC50 is the midpoint of a concentration-inhibition curve. Low readings indicate greater potency, high ones weaker potency. In test [1], `O=C(Nc1ccc(C(=O)N2Cc3cccn3Cc3ccccc32)cn1)c1ccccc1Cl` [Example 6] showed an inhibition at 1 µM of 90%. The IC50 in test [1] was determined as 140 nM; in test [2], 11 nM; in test [3], 1.8 nM.

On to `O=C(Nc1ccc(C(=O)N2Cc3cccn3Cc3ccccc32)cn1)c1ccccc1Br` [Example 8], for which, in test [1], the inhibition at 1 µM was determined as 89%. The IC50 in test [1] turned out to be 150 nM; in test [2], 7 nM; in test [3], 1.6 nM.

Turning to `Cc1ccccc1C(=O)Nc1ncc(C(=O)N2Cc3cccn3Cc3ccccc32)cc1Br` [Example 12], in test [1], at 10 µM the inhibition was 98%. Besides, the IC50 in test [1] stood at 800 nM; in test [2], 210 nM; in test [3] it was 24 nM.

As to `O=C(Nc1ccc(C(=O)N2Cc3cccn3Cc3ccccc32)cn1)c1ccc([N+](=O)[O-])cc1Cl` [Example 33], in test [1], testing at 10 µM gave an inhibition of 95%. Also, the IC50 in test [1] was 510 nM; in test [2], 450 nM; in test [3] it was 30 nM.

For the molecule `Cc1ccc(F)cc1C(=O)Nc1ccc(C(=O)N2Cc3ccnn3Cc3ccccc32)cn1` [Example 208, N-[5-(4H-Pyrazolo[5,1-c][1,4]benzodiazepin-5(10H)-ylcarbonyl)-2-pyridinyl]-5-fluoro-2-methylbenzamide], testing at 10 µM in test [1] gave an inhibition of 95%. Further, the IC50 in test [1] was 730 nM; in test [2] it was 87 nM; in test [3] it was 11 nM.

Regarding `O=C(Nc1ccc(C(=O)N2Cc3ccnn3Cc3ccccc32)cn1)c1ccccc1-c1ccccc1` [Example 245], the IC50 came out at 19 nM in test [2] and 1 nM in test [3].

Consider `O=C(c1ccc(NCC2CCCCC2)nc1)N1Cc2cccn2Cc2ccccc21` [Example 263], for which the inhibition at 10 µM in test [1] was 98%. Besides, the IC50 in test [1] worked out at 380 nM; in test [2], 200 nM; in test [3] it was 360 nM.

With `O=C(c1ccc(NCc2ccccc2)nc1)N1Cc2cccn2Cc2ccccc21` [Example 273, 10[[6-[(Phenylmethyl)amino]-3-pyridinyl]carbonyl]-10,11-dihydro-5H-pyrrolo[2,1-c][1,4]benzodiazepine], the inhibition at 2.5 µM in test [1] (dose 2.5 μM) stood at 95%. The IC50 was found to be 56 nM in test [1], 190 nM in test [2] and 82 nM in test [3].

On to `O=C(Nc1ccc(C(=O)N2Cc3cccn3Cc3ccccc32)c(Cl)c1)c1ccccc1-c1ccccc1` [Example 319, N-[4-(5H-Pyrrolo[2,1-c][1,4]benzodiazepin-10(11H)-ylcarbonyl)-3-chlorophenyl][1,1'-biphenyl]-2-carboxamide], for which the IC50 came out at 16 nM in test [2] and 1.5 nM in test [3].

On to `O=C(Nc1ccc(C(=O)N2Cc3cccn3Cc3ccccc32)cc1)c1ccccc1-c1ccccc1` [Example 320, N-[4-(5H-Pyrrolo[2,1-c][1,4]benzodiazepin-10(11H)-ylcarbonyl)phenyl][1,1'-biphenyl]-2-carboxamide], for which the IC50 was determined as 3.4 nM in test [2] and 2.6 nM in test [3].

For the molecule `O=C(Nc1ccc(C(=O)N2Cc3cccn3Cc3ccccc32)cc1)c1ccccc1Cc1ccccc1` [Example 321, N-[4-(5H-Pyrrolo[2,1-c][1,4]benzodiazepine-10(11H)-ylcarbonyl)phenyl]-2-(phenylmethyl)benzamide], the IC50 in test [2] came out at 18 nM; in test [3], 5.1 nM.

On to `O=C(Nc1ccc(C(=O)N2Cc3cccn3Cc3ccccc32)c(Cl)c1)c1ccccc1Cc1ccccc1` [Example 322, N-[4-(5H-Pyrrolo[2,1-c][1,4]benzodiazenin-10(11H)-ylcarbonyl)-3-chlorophenyl]-2-(phenylmethyl)benzamide], for which the results for the IC50 in test [2] and in test [3] were 670 nM and 11 nM, respectively.

In test [1], `O=C(Nc1ccc(C(=O)N2Cc3cccn3Cc3ccccc32)cc1)c1ccccc1-c1ccc(C(F)(F)F)cc1` [Example 324] registered an inhibition at 1 µM of 45%. Further, the IC50 in test [2] came out at 420 nM; in test [3], 120 nM.

Molecule `Cc1ncccc1C(=O)Nc1ccc(C(=O)N2Cc3cccn3Cc3ccccc32)cc1` [Example 327, N-[4-(5H-Pyrrolo[2,1-c][1,4]benzodiazepin-10(11H)-ylcarbonyl)phenyl]-2-methylpyridine-3-carboxamide] yielded an inhibition at 1 µM in test [1] of 56%. For the same molecule, the figures for the IC50 in test [2] and in test [3] were 350 nM and 28 nM, respectively.

Molecule `Cc1ncccc1C(=O)Nc1ccc(C(=O)N2Cc3cccn3Cc3ccccc32)c(Cl)c1` [Example 328, N-[4-(5H-Pyrrolo[2,1-c][1,4]benzodiazepin-10(11H)-yl-carbonyl)-3-chlorophenyl]-2-methyl-pyridine-3-carboxamide] gave an inhibition at 10 µM in test [1] of 85%. Further, the IC50 in test [1] was found to be 570 nM; in test [2], 3300 nM; in test [3], 19 nM.

On to `Cc1ncccc1C(=O)Nc1ccc(C(=O)N2Cc3cccn3Cc3ccccc32)cn1` [Example 329, N-[5-(5H-Pyrrolo[2,1-c][1,4]benzodiazepin-10(11H)-ylcarbonyl]-2-pyridinyl]-2-methylpyridine-3-carboxamide], for which, in test [1], the inhibition at 10 µM worked out at 91%. The IC50 in test [1] is 190 nM; in test [2] it was 310 nM; in test [3] it was 70 nM.

On to `CN(C)c1ncccc1C(=O)Nc1ccc(C(=O)N2Cc3cccn3Cc3ccccc32)cc1` [Example 332, N-[4-(5H-Pyrrolo[2,1-c][1,4]benzodiazepin-10(11H)-ylcarbonyl)phenyl]-2-(dimethylamino)-pyridine-3-carboxamide Hydrochloride], for which the values for the IC50 in test [1], in test [2] and in test [3] were 830 nM, 31 nM and 3.4 nM, respectively.

In test [1], `Cc1occc1C(=O)Nc1ccc(C(=O)N2Cc3cccn3Cc3ccccc32)cn1` [Example 353, N-[5-(5H-Pyrrolo[2,1-c][1,4]benzodiazepine-10(11H)-ylcarbonyl)-2-pyridinyl]-2-methylfurane-3-carboxamide] displayed an inhibition at 10 µM of 83% and an IC50 of 2050 nM. In test [3], testing at 1 µM gave an inhibition of 86%.

On to `Nc1ccccc1C(=O)Nc1ccc(C(=O)N2Cc3cccn3Cc3ccccc32)cn1` [Example 354, N-[5-(5H-Pyrrolo[2,1-c][1,4]benzodiazepin-10(11H)-ylcarbonyl)-2-pyridinyl]-2-aminobenzamide], for which the values for the inhibition at 1 µM in test [1] and in test [3] were 7% and 86%, respectively.
